From patent US10251886B1, “4-anilinoquinazoline derivative and albumin conjugates thereof” (National Chiao Tung University, priority 2018, dated 2019)
Like-named read-outs stand apart in the source and are kept apart here.

Assays:
A549 cell = assay: Cell viability assay (MTT assay), A549 cells; type: cell-based
Protocol: (§1) A549 cell (ATCC number: CCL-185) was a non-small cell lung carcinoma cell line, expressing wild type EGFR and K-RAS mutation (G12S). H1975 cell (ATCC number: CRL-5908) was a non-small cell lung carcinoma cell line expressing EGFR L858R/T790M mutation. A549 and H1975 cells were cultured in a complete medium at 37° C., 5% CO2 within a humidified incubator (310/Thermo, Forma Scientific, Inc., Marietta, Ohio). The complete medium was RPMI-1640 medium (Gibco, Life Technologies, Grand Island, N.Y., USA) supplemented with 10% fetal bovine serum (FBS), penicillin (100 units/mL), streptomycin (100 μg/mL), and sodium bicarbonate.
(§2) The cells were plated in 96-well plates at a density of 1×10^4 cells/well for 16-20 hours. Thereafter, the cells in each well were treated by 0.1 mL of a treating agent for 24 hours. The treating agents for the wells were different in treating chemicals and their concentrations. The treating chemicals were Erlotinib, Erlotinib analogues (CE 1 to 6 and E1), and BSA-conjugated Erlotinib Analogue (E2). Next, the cells were washed with phosphate-buffered saline (PBS) and were further cultured with fresh complete medium for 2 days. Subsequently, the cells were incubated with 0.5 mg/ml of 3-(4,5-dimethylthiazol-2-yl)-2,5-diphenyltetrazolium bromide (MTT) in fresh complete medium for 4 hours, followed by removal of the medium and addition of dimethyl sulfoxide (DMSO, 0.1 mL) to thereby allow […]. The absorbance of the reduced MTT (formazan) was read on a microplate reader (VERSAmax, Molecular Devices Inc., CA) at 565 nm. […] Tables 1 and 2, and FIGS. 1 and 2 show cell viability values for A549 cell using different treating chemicals in different concentrations. Table 3 and FIG. 3 show cell viability values for H1975 cell using two treating chemicals in different concentrations.

H1975 cell = assay: Cell viability assay (MTT assay), H1975 cells; type: cell-based; conditions: treated 24 hours, cultured 2 more days, Table 3
Protocol: as §1, §2

[1] = Homo sapiens, A549, 24 h, read-out: Cell viability (%)

Structure (SMILES)	viability at 5 µM (A549 cell; [1])	viability at 10 µM (A549 cell; [1])	viability at 20 µM (A549 cell; [1])	viability at 40 µM (A549 cell; [1])	viability at 60 µM (A549 cell; [1])	other results
C#Cc1cccc(Nc2ncnc3cc(OC)c(OCc4ccccc4)cc23)c1 [CE1, 6-(benzyloxy)-N-(3-ethynylphenyl)-7-methoxyquinazolin-4-amine]	79.9%	74.7%	73%	71.6%	63.4%	
C#Cc1cccc(Nc2ncnc3cc(OC)c(OCCOC)cc23)c1 [CE2, N-(3-ethynylphenyl)-7-methoxy-6-(2-methoxyethoxy) quinazolin-4-amine]	69.5%	60.9%	62.4%	64.5%	61.6%	
C#Cc1cccc(Nc2ncnc3cc(OCCOC(C)=O)c(OCCOC)cc23)c1 [CE3, 2-{[4-((3-ethynylphenyl)amino)-6-(2-methoxyethoxy)quinazolin-7-yl]oxy}ethyl acetate]	79.3%	77.5%	70.1%	63%	59.5%	
C#Cc1cccc(Nc2ncnc3cc(OCCO)c(OCCOC)cc23)c1 [CE4, 2-{[4-((3-ethynylphenyl)amino)-6-(2-methoxyethoxy)quinazolin-7-yl]oxy}ethanol]	74.5%	68.4%	63.1%	60.7%	57.8%	
C#Cc1cccc(Nc2ncnc3cc(OCCOS(C)(=O)=O)c(OCCOC)cc23)c1 [CE5, 2-{[4-((3-ethynylphenyl)amino)-6-(2-methoxyethoxy)quinazolin-7-yl]oxy}ethyl methanesulfonate]	73.7%	67.2%	56.1%	57.9%	60.7%	
C#Cc1cccc(Nc2ncnc3cc(OCCN)c(OCCOC)cc23)c1 [CE6, 7-(2-aminoethoxy)-N-(3-ethynylphenyl)-6-(2-methoxyethoxy) quinazolin-4-amine]	75.4%	74.8%	74.1%	62.7%	58.6%	
C#Cc1cccc(Nc2ncnc3cc(OCCOC)c(OCCOC)cc23)c1 [Erlotinib, reference compound]						viability at 0.5 µM (A549 cell; Homo sapiens, A549, 24 h, read-out: Cell viability (%), A549 cell, treating chemical 0.5 μM, treated 24 hours, cultured 2 more days, Table 2): 89.3%; viability at 1 µM (A549 cell; Homo sapiens, A549, 24 h, read-out: Cell viability (%), A549 cell, treating chemical 1 μM, treated 24 hours, cultured 2 more days, Table 2): 89.3%; viability at 5 µM (A549 cell; Homo sapiens, A549, 24 h, read-out: Cell viability (%), A549 cell, treating chemical 5 μM, treated 24 hours, cultured 2 more days, Table 1): 73.8%; viability at 5 µM (A549 cell; Homo sapiens, A549, 24 h, read-out: Cell viability (%), A549 cell, treating chemical 5 μM, treated 24 hours, cultured 2 more days, Table 2): 84.2%; viability at 10 µM (A549 cell; Homo sapiens, A549, 24 h, read-out: Cell viability (%), A549 cell, treating chemical 10 μM, treated 24 hours, cultured 2 more days, Table 1): 71.7%; viability at 20 µM (A549 cell; Homo sapiens, A549, 24 h, read-out: Cell viability (%), A549 cell, treating chemical 20 μM, treated 24 hours, cultured 2 more days, Table 1): 65.9%; viability at 40 µM (A549 cell; Homo sapiens, A549, 24 h, read-out: Cell viability (%), A549 cell, treating chemical 40 μM, treated 24 hours, cultured 2 more days, Table 1): 61.2%; viability at 60 µM (A549 cell; Homo sapiens, A549, 24 h, read-out: Cell viability (%), A549 cell, treating chemical 60 μM, treated 24 hours, cultured 2 more days, Table 1): 58.5%; Cell viability (%) (H1975 cell; treating chemical 0.5 μM): 98.4% ± 2.7; Cell viability (%) (H1975 cell; treating chemical 1 μM): 93.1% ± 2.5; Cell viability (%) (H1975 cell; treating chemical 5 μM): 75.8% ± 4.5
C#Cc1cccc(Nc2ncnc3cc(OCCI)c(OCCOC)cc23)c1 [Example E1, N-(3-ethynylphenyl)-7-(2-iodoethoxy)-6-(2-methoxyethoxy)quinazolin-4-amine]	32.8%	30.3%	26.3%	28%	24.3%	Cell viability in comparison with the commercial available drug (Erlotinib) (A549 cell; A549 cells, Tables 1 and 2, FIGS. 1 and 2): significantly lower cell viability
